Laboratory results: the NIST ThermoML archive (doi:10.1016/j.tca.2017.12.010)
± gives the expanded uncertainty stated by the source.

Legend:
[1] = Liquid, DSC
[2] = Boiling temperature at pressure P; conditions: Liquid, DSC

C1CCCCC1 [cyclohexane]
vapor or sublimation pressure ([1]; 353.82 K): 101.3 ± 7.9 kPa

Cc1ccccc1 [toluene]
vapor or sublimation pressure ([1]; 383.6 K): 101.3 ± 7.9 kPa

O [water]
Boiling temperature at pressure P ([2]; 92.9 kPa): 97.82 ± 1.6 °C | Boiling temperature at pressure P ([2]; 93 kPa): 97.84 ± 1.6 °C | Boiling temperature at pressure P ([2]; 93.5 kPa): 97.94 ± 1.6 °C | Boiling temperature at pressure P ([2]; 94.1 kPa): 98.06 ± 1.6 °C | Boiling temperature at pressure P ([2]; 101.3 kPa): 100.01 ± 1.6 °C | Boiling temperature at pressure P ([2]; 395 kPa): 143.21 ± 1.6 °C | Boiling temperature at pressure P ([2]; 585 kPa): 157.83 ± 1.6 °C | Boiling temperature at pressure P ([2]; 592 kPa): 158.51 ± 1.6 °C | Boiling temperature at pressure P ([2]; 791 kPa): 169.38 ± 1.6 °C | Boiling temperature at pressure P ([2]; 1091 kPa): 183.29 ± 1.6 °C | Boiling temperature at pressure P ([2]; 1392 kPa): 194.26 ± 1.6 °C | Boiling temperature at pressure P ([2]; 1689 kPa): 203.20 ± 1.6 °C | Boiling temperature at pressure P ([2]; 2088 kPa): 213.26 ± 1.6 °C

CC(C)O [propan-2-ol]
vapor or sublimation pressure ([1]; 355.71 K): 101.3 ± 7.9 kPa

CO [methanol]
vapor or sublimation pressure ([1]; 337.78 K): 101.3 ± 7.9 kPa
